From patent US20020019395A1, “Indalone and benzimidazolone inhibitors of factor Xa” (priority 2000, published 2002) come the findings set out here.

Holding throughout (type): biochemical
The target in test [1] is factor Xa (Homo sapiens, UniProt P00742). Put plainly: factor Xa amidolytic assay (XA). To be noted: substrate S-2765, pH 7.5, room temperature. The method, then:
(§1) The compounds of the present invention are dissolved in buffer to give solutions containing concentrations such that assay concentrations range from about 0 to about 100 μM. In the assays for thrombin, prothrombinase and factor Xa, a synthetic chromogenic substrate is added to a solution containing test compound and the enzyme of interest and the residual catalytic activity of that enzyme is determined spectrophotometrically. The IC50 of a compound is determined from the substrate turnover. The IC50 is the concentration of test compound giving about 50% inhibition of the substrate turnover.
(§2) The factor Xa and thrombin assays were performed at room temperature, in 0.02 M Tris.HCl buffer, pH 7.5, containing 0.15 M NaCl. The rates of hydrolysis of the para-nitroanilide substrate S-2765 (Chromogenix) for factor Xa, and the substrate Chromozym TH (Boehringer Mannheim) for thrombin following preincubation of the enzyme with inhibitor for 5 minutes at room temperature, and were determined using the Softmax 96-well plate reader (Molecular Devices), monitored at 405 nm to measure the time dependent appearance of p-nitroaniline.

Test [2] relates to KALLIKREIN
Put plainly: kallikrein protease inhibition assay.

Test [3] addresses TPA (Homo sapiens, UniProt P00750). The test is described as follows: TPA protease inhibition assay.
Test [4] deals with PLASMIN (Homo sapiens, UniProt P00747). Put plainly: plasmin protease inhibition assay.
Test [5] has as its target prothrombinase complex (Homo sapiens, UniProt P00742). The test is described as follows: prothrombinase inhibition assay (IIASE), plasma free system. As to conditions: factor Xa 0.5 nM, factor Va 2 nM, phospholipid, Chromozym TH. Here is the method: as §1
The prothrombinase inhibition assay was performed in a plasma free system with modifications to the method described by Sinha, U. et al., Thromb. Res., 75, 427-436 (1994). Specifically, the activity of the prothrombinase complex was determined by measuring the time course of thrombin generation using the p-nitroanilide substrate Chromozym TH. The assay consists of preincubation (5 minutes) of selected compounds to be tested as inhibitors with the complex formed from factor Xa (0.5 nM), factor Va (2 nM), phosphatidyl serine:phosphatidyl choline (25:75, 20 μM) in 20 mM Tris.HCl buffer, pH 7.5, containing 0.15 M NaCl, 5 mM CaCl2 and 0.1% bovine serum albumin. Aliquots from the complex-inhibitor mixture were added to prothrombin (1 nM) and Chromozym TH (0.1 mM). The rate of substrate cleavage was monitored at 405 nm for two minutes. Eight different concentrations of inhibitor were assayed in duplicate. A standard curve of thrombin generation by an equivalent amount of untreated complex was used for determination of percent inhibition.

The target of test [6] is APC (Homo sapiens, UniProt P04070). The test is described as follows: APC protease inhibition assay.
Test [7] concerns the target T1, TRYPSIN (Bos taurus, UniProt P00760).
T1 construct: gene PRSS1
T1 sequence (P00760 24-246): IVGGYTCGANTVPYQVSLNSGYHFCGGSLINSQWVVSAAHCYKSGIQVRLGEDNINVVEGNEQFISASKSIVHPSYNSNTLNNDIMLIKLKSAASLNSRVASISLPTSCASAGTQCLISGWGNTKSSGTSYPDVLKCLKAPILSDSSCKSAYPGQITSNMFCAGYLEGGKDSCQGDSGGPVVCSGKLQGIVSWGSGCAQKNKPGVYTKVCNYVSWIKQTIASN
The test is described as follows: trypsin protease inhibition assay.

For test [8], the target named is thrombin (Homo sapiens, UniProt P00734). Put plainly: thrombin amidolytic assay (IIA). To be noted: substrate Chromozym TH, pH 7.5, room temperature. The method, then: as §1, §2

The structures appear in SMILES notation.

Chain of PLASMIN (P00747 581-810 limits assumed, species assumed): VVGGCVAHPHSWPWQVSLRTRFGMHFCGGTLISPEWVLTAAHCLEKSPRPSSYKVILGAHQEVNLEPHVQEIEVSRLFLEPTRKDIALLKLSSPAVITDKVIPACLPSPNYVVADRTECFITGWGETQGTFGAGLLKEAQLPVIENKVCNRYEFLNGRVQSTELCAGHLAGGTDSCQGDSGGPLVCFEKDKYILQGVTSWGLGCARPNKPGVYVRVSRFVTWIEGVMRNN
Chain of PLASMIN (P00747 97-580 partner limits assumed, species assumed): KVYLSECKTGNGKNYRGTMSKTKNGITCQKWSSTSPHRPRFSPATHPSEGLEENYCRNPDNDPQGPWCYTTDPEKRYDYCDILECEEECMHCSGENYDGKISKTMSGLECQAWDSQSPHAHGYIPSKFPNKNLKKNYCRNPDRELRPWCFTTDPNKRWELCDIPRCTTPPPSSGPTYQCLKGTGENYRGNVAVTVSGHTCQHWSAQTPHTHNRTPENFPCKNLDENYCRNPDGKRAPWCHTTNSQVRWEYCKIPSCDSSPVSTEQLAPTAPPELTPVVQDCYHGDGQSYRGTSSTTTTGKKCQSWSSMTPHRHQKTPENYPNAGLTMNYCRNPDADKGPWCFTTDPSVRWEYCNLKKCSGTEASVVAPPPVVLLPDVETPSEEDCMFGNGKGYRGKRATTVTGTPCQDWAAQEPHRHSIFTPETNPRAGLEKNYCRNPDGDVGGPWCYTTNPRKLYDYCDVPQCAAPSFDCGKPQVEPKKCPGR
Chain of TPA (P00750 36-562, species assumed): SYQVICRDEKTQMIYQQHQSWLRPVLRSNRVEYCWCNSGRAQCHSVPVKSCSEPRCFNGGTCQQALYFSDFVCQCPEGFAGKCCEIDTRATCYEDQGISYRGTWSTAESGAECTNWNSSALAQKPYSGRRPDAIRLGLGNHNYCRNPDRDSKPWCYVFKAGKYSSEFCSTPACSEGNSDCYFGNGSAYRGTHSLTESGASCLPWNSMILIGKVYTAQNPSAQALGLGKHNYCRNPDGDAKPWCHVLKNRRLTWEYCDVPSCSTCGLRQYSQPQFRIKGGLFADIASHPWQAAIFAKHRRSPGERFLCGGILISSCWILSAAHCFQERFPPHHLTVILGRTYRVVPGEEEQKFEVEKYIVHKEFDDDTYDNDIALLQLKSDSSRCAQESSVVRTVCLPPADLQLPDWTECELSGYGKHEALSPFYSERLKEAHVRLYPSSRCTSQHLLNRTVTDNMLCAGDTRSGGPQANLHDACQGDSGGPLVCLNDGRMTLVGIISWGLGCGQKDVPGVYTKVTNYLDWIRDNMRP
Chain of factor Xa (P00742 235-488 limits assumed): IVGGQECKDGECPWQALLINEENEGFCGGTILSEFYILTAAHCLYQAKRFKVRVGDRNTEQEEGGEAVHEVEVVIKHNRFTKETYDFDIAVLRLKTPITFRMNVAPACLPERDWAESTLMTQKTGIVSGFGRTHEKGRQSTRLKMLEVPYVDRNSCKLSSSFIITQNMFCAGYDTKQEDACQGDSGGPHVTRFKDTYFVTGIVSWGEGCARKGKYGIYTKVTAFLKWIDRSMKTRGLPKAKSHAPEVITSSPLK
Chain of factor Xa (P00742 41-179 partner limits assumed): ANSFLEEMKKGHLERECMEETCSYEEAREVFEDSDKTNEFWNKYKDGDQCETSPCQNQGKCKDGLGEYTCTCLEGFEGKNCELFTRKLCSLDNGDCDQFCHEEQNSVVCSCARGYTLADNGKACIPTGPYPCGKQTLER
Chain of prothrombinase complex (P00742 235-488 limits assumed): as the sequence (P00742 235-488 limits assumed) above
Chain of prothrombinase complex (P00742 41-179 partner limits assumed): as the sequence (P00742 41-179 partner limits assumed) above
Chain of prothrombinase complex (P12259 29-737 partner limits assumed): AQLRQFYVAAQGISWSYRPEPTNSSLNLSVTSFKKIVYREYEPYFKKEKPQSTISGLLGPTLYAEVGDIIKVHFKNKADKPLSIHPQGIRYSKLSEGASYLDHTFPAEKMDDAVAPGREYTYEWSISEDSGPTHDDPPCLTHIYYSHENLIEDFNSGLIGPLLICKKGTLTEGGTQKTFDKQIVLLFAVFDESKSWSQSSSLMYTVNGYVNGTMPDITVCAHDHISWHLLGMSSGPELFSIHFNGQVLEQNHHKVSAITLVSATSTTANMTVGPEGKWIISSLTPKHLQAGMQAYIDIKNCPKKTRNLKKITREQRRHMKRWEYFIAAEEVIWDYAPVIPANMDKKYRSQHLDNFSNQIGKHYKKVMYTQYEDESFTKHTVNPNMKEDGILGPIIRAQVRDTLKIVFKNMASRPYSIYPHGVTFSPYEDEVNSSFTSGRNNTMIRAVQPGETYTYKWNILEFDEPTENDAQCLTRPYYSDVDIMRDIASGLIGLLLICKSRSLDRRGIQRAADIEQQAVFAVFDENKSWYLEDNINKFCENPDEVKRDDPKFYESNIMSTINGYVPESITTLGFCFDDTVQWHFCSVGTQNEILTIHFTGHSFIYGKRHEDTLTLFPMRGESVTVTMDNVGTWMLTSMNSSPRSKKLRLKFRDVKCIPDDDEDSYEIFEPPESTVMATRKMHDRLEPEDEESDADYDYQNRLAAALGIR
Chain of prothrombinase complex (P12259 1574-2224 partner limits assumed): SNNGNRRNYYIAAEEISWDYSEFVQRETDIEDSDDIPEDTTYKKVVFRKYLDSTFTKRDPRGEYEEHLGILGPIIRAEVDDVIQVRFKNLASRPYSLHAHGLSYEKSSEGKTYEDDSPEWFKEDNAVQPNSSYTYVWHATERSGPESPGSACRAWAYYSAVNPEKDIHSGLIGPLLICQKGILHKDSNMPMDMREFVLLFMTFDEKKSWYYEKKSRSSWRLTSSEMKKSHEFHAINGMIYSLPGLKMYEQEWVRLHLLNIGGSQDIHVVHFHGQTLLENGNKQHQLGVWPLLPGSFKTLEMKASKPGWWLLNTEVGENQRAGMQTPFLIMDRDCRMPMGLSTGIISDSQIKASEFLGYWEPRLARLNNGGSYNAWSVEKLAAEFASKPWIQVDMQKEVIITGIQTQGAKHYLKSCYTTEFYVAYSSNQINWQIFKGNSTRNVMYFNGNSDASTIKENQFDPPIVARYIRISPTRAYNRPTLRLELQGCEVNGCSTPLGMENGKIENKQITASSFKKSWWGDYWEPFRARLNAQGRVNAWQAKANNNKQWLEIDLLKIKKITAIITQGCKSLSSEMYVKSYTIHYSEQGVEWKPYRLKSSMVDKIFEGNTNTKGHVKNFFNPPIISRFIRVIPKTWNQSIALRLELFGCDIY
Chain of APC (P04070 212-450 limits assumed): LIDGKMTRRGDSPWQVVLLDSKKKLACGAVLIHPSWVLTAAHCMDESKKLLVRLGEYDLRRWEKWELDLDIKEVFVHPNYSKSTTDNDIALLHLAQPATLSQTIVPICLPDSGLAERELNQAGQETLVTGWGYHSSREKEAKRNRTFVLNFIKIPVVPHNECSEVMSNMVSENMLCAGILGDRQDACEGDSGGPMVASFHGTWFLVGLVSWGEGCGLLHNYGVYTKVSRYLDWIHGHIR
Chain of APC (P04070 43-197 partner limits assumed): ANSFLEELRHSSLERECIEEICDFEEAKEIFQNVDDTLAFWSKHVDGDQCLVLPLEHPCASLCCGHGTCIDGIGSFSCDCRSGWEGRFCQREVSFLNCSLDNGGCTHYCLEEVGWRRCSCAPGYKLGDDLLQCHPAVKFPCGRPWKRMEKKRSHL

In general, IC50 refers to the concentration needed to halve the response being measured. Read a low IC50 as inhibition by little substance. Consider `Cn1c(=O)n(Cc2ccc3ccc(C(=N)N)cc3c2)c2cc(OC3CCN(C(=N)N)CC3)ccc21` [Example 7], for which the IC50 in test [1] turned out to be 32 nM; in test [2], 615 nM; in test [3], 31800 nM; in test [4], 2980 nM; in test [5] it was 401 nM; in test [6], 6420 nM. The values for the concentration for half-maximal inhibition (IC50) in test [7] and in test [8] were 32.2 nM and 24500 nM, respectively.

As for `CC(=N)N1CCC(Oc2ccc3c(c2)n(Cc2ccc4ccc(C(=N)N)cc4c2)c(=O)n3CC(=O)O)CC1` [Example 14], the IC50 turned out to be 8.15 nM in test [1]; 2950 nM in test [2]; 88100 nM in test [3]; 6040 nM in test [4]; 481 nM in test [5]; 19300 nM in test [6]. Moreover, in test [7], half-maximal inhibition (IC50) required 192 nM.

Take `N=C(N)c1ccc(Cn2c(=O)[nH]c3ccc(OC4CCN(C(=N)N)CC4)cc32)cc1` [Example 1]: the half-maximal inhibitory concentration (IC50) in test [1] was 9220 nM; in test [2] it was 9540 nM; in test [6], 99200 nM; in test [7], 21800 nM; in test [8] it was 333000 nM.

`CC(=N)N1CCC(Oc2ccc3c(c2)n(Cc2ccc4ccc(C(=N)N)cc4c2)c(=O)n3C(C)C)CC1` [Example 8]: the IC50 worked out at 28.6 nM in test [1]; 349 nM in test [2]; 77800 nM in test [3]; 3500 nM in test [4]; 425 nM in test [5]; 2480 nM in test [6]. The half-maximal inhibitory concentration (IC50) in test [7] was found to be 349 nM; in test [8], 30200 nM.

For `CC(=N)N1CCC(Oc2ccc3c(c2)n(Cc2ccc4ccc(C(=N)N)cc4c2)c(=O)n3C)CC1` [Example 6], the concentration for half-maximal inhibition (IC50) in test [1] was determined as 27 nM; in test [2], 592 nM; in test [3], 36100 nM; in test [4] it was 3670 nM; in test [5], 422 nM; in test [6], 7650 nM. Besides, the figures for the IC50 in test [7] and in test [8] were 55.7 nM and 32100 nM, respectively.

On to `CC(=N)N1CCC(Oc2ccc3c(c2)n(Cc2ccc4ccc(C(=N)N)cc4c2)c(=O)n3CC(=O)OCC(C)C)CC1` [Example 12], for which the IC50 amounted to 10.8 nM in test [1]; 1340 nM in test [2]; 54000 nM in test [3]; 4220 nM in test [4]; 103 nM in test [5]; 8120 nM in test [6]. The IC50 in test [7] is 81.6 nM; in test [8], 264000 nM.

Regarding `CC(C)n1c(=O)n(Cc2ccc3ccc(C(=N)N)cc3c2)c2cc(OC3CCN(C(=N)N)CC3)ccc21` [Example 9], the half-maximal inhibitory concentration (IC50) was found to be 49.8 nM in test [1]; 392 nM in test [2]; 92800 nM in test [3]; 2230 nM in test [4]; 827 nM in test [5]; 1850 nM in test [6]. The figures for the IC50 in test [7] and in test [8] were 392 nM and 14900 nM, respectively.

In the case of `CCn1c(Cn2c(=O)[nH]c3ccc(OC4CCN(C(=N)N)CC4)cc32)cc2ccc(C(=N)N)cc21` [Example 18], the half-inhibitory concentration (IC50) amounted to 1770 nM in test [1], 470 nM in test [5], 509 nM in test [7] and 302 nM in test [8].

Take `CC(C)COC(=O)Cn1c(=O)n(Cc2ccc3ccc(C(=N)N)cc3c2)c2cc(OC3CCN(C(=N)N)CC3)ccc21` [Example 13]: the IC50 is 17.8 nM in test [1]; 1250 nM in test [2]; 42800 nM in test [3]; 2710 nM in test [4]; 250 nM in test [5]; 6510 nM in test [6]. The concentration for half-maximal inhibition (IC50) in test [7] turned out to be 44.1 nM; in test [8] it was 59900 nM.

Consider `N=C(N)c1ccc2ccc(Cn3c(=O)n(CC(=O)O)c4ccc(OC5CCN(C(=N)N)CC5)cc43)cc2c1` [Example 15], for which the IC50 in test [1] is 67.1 nM; in test [2] it was 9220 nM; in test [3], 169000 nM; in test [4], 17000 nM; in test [5], 4220 nM; in test [6], 49800 nM. This compound also had a half-inhibitory concentration (IC50) in test [7] of 163 nM.

For the compound `CC(=N)N1CCC(Oc2ccc3[nH]c(=O)n(Cc4ccc5ccc(C(=N)N)cc5c4)c3c2)CC1` [Example 4], the IC50 in test [1] is 20.4 nM; in test [2], 508 nM; in test [3], 101000 nM; in test [4], 8940 nM; in test [5], 22.2 nM; in test [6] it was 15900 nM. Further, the IC50 stood at 133 nM in test [7] and 286000 nM in test [8].

As to `CCn1c(Cn2c(=O)[nH]c3ccc(OC4CCN(C(C)=N)CC4)cc32)cc2ccc(C(=N)N)cc21` [Example 17], the IC50 was found to be 14000 nM in test [1], 526 nM in test [5], 409 nM in test [7] and 267 nM in test [8].
